Results published in patent publication US9293713B2, “Arylamine compound” (RICOH COMPANY, LTD., priority 2012, dated 2016).

How the values were obtained:
[1] = Pyrolysis behavior observed by TG-DTA; assay type: physicochemical; settings: for difference of mass reduced between theoretical value and actual measured value: heating
Procedure: HTL17 synthesized in Example 1 was heated at a range of 25° C. to 450° C. at a temperature increasing rate of 5° C./min and the pyrolysis behavior thereof was observed by TG-DTA [reference: Al2O3, under nitrogen flow (200 mL/min), EXSTAR6000 (product name), product of Seiko Instruments Inc.].
The results are shown in FIG. 2, where the horizontal axis indicates temperature [° C.], the left-hand vertical axis indicates change in mass [mg] and the right-hand vertical axis indicates DTA signal [μV].

[2] = Preparation of ink (evaluation of solubility): degree of solubility from saturated solution; assay type: physicochemical; settings: for degree of solubility, 1,2,3,4-Tetrahydronaphthalene: solvent 1,2,3,4-tetrahydronaphthalene (Tetralin); for degree of solubility, 2-Propanol: solvent 2-propanol; for degree of solubility, ethyl benzoate: solvent ethyl benzoate; for degree of solubility, Toluene: solvent toluene
Procedure: HTL17 was added to each of toluene, chloroform, 2-propanol, 1,2,3,4-tetrahydronaphthalene (Tetralin®), ethyl benzoate (100 mL respectively), until undissolved compound was observed. The mixture was stirred for 10 minute with refluxing the solvent. Then, mixture was cooled to ambient temperature, and stirred for 1 hour, followed by still standing for 16 hours. The supernatant was filtrated by PTFE filter having thickness of 0.2 μm to obtain saturated solution. The saturated solution was dried under reduced pressure to calculate degree of solubility for each solvent.
Evaluation criteria in Table 4 was described below.

[3] = saturated solution at ambient temperature

| SMILES | mass reduction ([1]; from ambient temperature to 250° C., 5° C./min, nitrogen flow) [%] | degree of solubility, 1,2,3,4-Tetrahydronaphthalene [2, 3] | degree of solubility, 2-Propanol [2, 3] | degree of solubility, ethyl benzoate [2, 3] | degree of solubility, Toluene [2, 3] | difference of mass reduced between theoretical value and actual measured value [1] [%] | difference of mass reduced between theoretical value and actual measured value ([1]; prophetic example) [%] | degree of solubility, 1,2,3,4-Tetrahydronaphthalene ([2]; prophetic example) | degree of solubility, 2-Propanol ([2]; prophetic example) | degree of solubility, ethyl benzoate ([2]; prophetic example) | degree of solubility, Toluene ([2]; prophetic example) |
| --- | --- | --- | --- | --- | --- | --- | --- | --- | --- | --- | --- |
| CCCCCC(=O)OC1CCC(OC(=O)CCCCC)c2cc(N(c3ccc(-c4ccc(N(c5ccc6c(c5)C(OC(=O)CCCCC)CCC6OC(=O)CCCCC)c5ccc6ccccc6c5)cc4)cc3)c3ccc4ccccc4c3)ccc21 (stereo not drawn) [HTL17] | 40.0 | A (The degree of solubility is not less than 5% by mass) | A (The degree of solubility is not less than 5% by mass) | A (The degree of solubility is not less than 5% by mass) | A (The degree of solubility is not less than 5% by mass) |  |  |  |  |  |  |
| CCCCCC(=O)OC1CCC(OC(=O)CCCCC)c2cc(N(c3ccc(-c4ccc(N(c5ccc6c(c5)C(OC(=O)CCCCC)CCC6OC(=O)CCCCC)c5cccc6ccccc56)cc4)cc3)c3cccc4ccccc34)ccc21 (stereo not drawn) [HTL18] |  | A (The degree of solubility is not less than 5% by mass) | A (The degree of solubility is not less than 5% by mass) | A (The degree of solubility is not less than 5% by mass) | A (The degree of solubility is not less than 5% by mass) | −0.12 |  |  |  |  |  |
| CCCCCC(=O)OC1CCC(OC(=O)CCCCC)c2cc(N(c3ccc(C4(c5ccc(N(c6ccc7c(c6)C(OC(=O)CCCCC)CCC7OC(=O)CCCCC)c6ccc7ccccc7c6)cc5)c5ccccc5-c5ccccc54)cc3)c3ccc4ccccc4c3)ccc21 (stereo not drawn) [HTL33] |  | A (The degree of solubility is not less than 5% by mass) | B (The degree of solubility is not less than 1% by mass but less than 5% by mass.) | A (The degree of solubility is not less than 5% by mass) | A (The degree of solubility is not less than 5% by mass) | −0.16 |  |  |  |  |  |
| CCCCCC(=O)OC1C=C(c2ccc(N(c3ccc(C4=CC(OC(=O)CCCCC)CCC4OC(=O)CCCCC)cc3)c3ccc(-c4ccc(N(c5ccc(C6=CC(OC(=O)CCCCC)CCC6OC(=O)CCCCC)cc5)c5ccc(C6=CC(OC(=O)CCCCC)CCC6OC(=O)CCCCC)cc5)cc4)cc3)cc2)C(OC(=O)CCCCC)CC1 (stereo not drawn) [HTL34] |  |  |  |  |  |  | −0.18 | A (The degree of solubility is not less than 5% by mass) | B (The degree of solubility is not less than 1% by mass but less than 5% by mass.) | A (The degree of solubility is not less than 5% by mass) | A (The degree of solubility is not less than 5% by mass) |
| c1ccc2c(c1)-c1ccccc1C2(c1ccc(N(c2ccc3ccccc3c2)c2ccc3ccccc3c2)cc1)c1ccc(N(c2ccc3ccccc3c2)c2ccc3ccccc3c2)cc1 [NPAPF, 9,9-bis[4-(N,N-bis-naphthalene-2-yl-amino)phenyl]-9H-florene, reference compound] |  | B (The degree of solubility is not less than 1% by mass but less than 5% by mass.) | C (The degree of solubility is less than 1% by mass) | C (The degree of solubility is less than 1% by mass) | B (The degree of solubility is not less than 1% by mass but less than 5% by mass.) |  |  |  |  |  |  |
| c1ccc(-c2ccc(N(c3ccc(-c4ccccc4)cc3)c3ccc(-c4ccc(N(c5ccc(-c6ccccc6)cc5)c5ccc(-c6ccccc6)cc5)cc4)cc3)cc2)cc1 [TBPB, N,N,N′,N′-tetra-biphenyl-4-yl-benzidine, reference compound] |  |  |  |  |  |  |  | B (The degree of solubility is not less than 1% by mass but less than 5% by mass.) | C (The degree of solubility is less than 1% by mass) | B (The degree of solubility is not less than 1% by mass but less than 5% by mass.) | A (The degree of solubility is not less than 5% by mass) |
| c1ccc2cc(N(c3ccc(-c4ccc(N(c5ccc6ccccc6c5)c5cccc6ccccc56)cc4)cc3)c3cccc4ccccc34)ccc2c1 [α,β-TNB, 4,4′-bis[N-(1-naphthyl)-N-(2-naphthyl)amino]biphenyl, reference compound] |  | A (The degree of solubility is not less than 5% by mass) | C (The degree of solubility is less than 1% by mass) | B (The degree of solubility is not less than 1% by mass but less than 5% by mass.) | A (The degree of solubility is not less than 5% by mass) |  |  |  |  |  |  |
| c1ccc2cc(N(c3ccc(-c4ccc(N(c5ccc6ccccc6c5)c5cccc6ccccc56)cc4)cc3)c3cccc4ccccc34)ccc2c1 [α-TNB, 4,4′-tetrakis[N-(1-naphthyl)-N-(2-naphthyl)amino]biphenyl, reference compound] |  |  |  |  |  |  |  | B (The degree of solubility is not less than 1% by mass but less than 5% by mass.) | C (The degree of solubility is less than 1% by mass) | B (The degree of solubility is not less than 1% by mass but less than 5% by mass.) | A (The degree of solubility is not less than 5% by mass) |
